Results taken from ChEMBL document CHEMBL3817831, “Ionophoric polyphenols selectively bind Cu(2+), display potent antioxidant and anti-amyloidogenic properties, and are non-toxic toward Tetrahymena thermophila” (Bioorg Med Chem, 2016).
Activity calls are given as the source filed them. No cut-off for these calls is given here.

Experiments:
[1] = Antioxidant activity assessed as AAPH radical scavenging activity preincubated for 30 mins followed by AAPH addition measured after 60 mins by ORAC assay; assay type: physicochemical
[2] = Inhibition of preformed Cu2+-induced amyloid beta (1 to 40) fibril aggregation at 100 uM after 12 days by turbidity assay relative to control
[3] = Binding affinity to Zn2+ using ZnCl2 at 20 uM after 5 mins by spectrophotometry
[4] = Inhibition of preformed Cu2+-induced amyloid beta (1 to 40) fibril aggregation assessed as remaining fibril aggregates at 100 uM after 12 days at pH 6.60 by thioflavin-T fluorescence assay
[5] = Inhibition of preformed Cu2+-induced amyloid beta (1 to 40) fibril aggregation at 100 uM after 12 days by turbidity assay relative to total turbidity of amyloid beta (1 to 40) aggregates
[6] = target: Amyloid-beta precursor protein (Homo sapiens) (UniProt P05067); experiment: Inhibition of preformed self-induced amyloid beta (1 to 40) (unknown origin) fibril aggregation at 100 uM after 12 days by turbidity assay relative to control
[7] = Inhibition of Cu2+-amyloid beta (1 to 40) catalyzed generation of hydroxyl radical assessed as 7-hrdroxy-CCA formation at 2 equiv preincubated for 1 hr followed by CCA addition measured over 60 mins by fluorescence assay
[8] = target: Amyloid-beta precursor protein (Homo sapiens) (UniProt P05067); experiment: Induction of preformed self-induced amyloid beta (1 to 40) (unknown origin) fibril aggregation at 100 uM after 4 days by turbidity assay
[9] = Binding affinity to Mn2+ using MnCl2 at 20 uM after 5 mins by spectrophotometry
[10] = Inhibition of Cu2+-amyloid beta (1 to 40) catalyzed generation of hydroxyl radical assessed as rate of radical formation per min at 2 equiv preincubated for 1 hr followed by CCA addition measured over 60 mins by CCA based fluorescence assay (reference value: 13 +/- 0.2 a.u.)
[11] = Binding affinity to Mg2+ using MgSO4 at 20 uM after 5 mins by spectrophotometry
[12] = Binding affinity to Cu2+ using CuCl2 after 5 mins by spectrophotometry
[13] = target: Amyloid-beta precursor protein (Homo sapiens) (UniProt P05067); experiment: Inhibition of self-induced amyloid beta (1 to 40) (unknown origin) fibril aggregation assessed as remaining fibril aggregates at 100 uM after 3 days at pH 6.60 by thioflavin-T fluorescence assay
[14] = Binding affinity to Ca2+ using CaCl2 at 20 uM after 5 mins by spectrophotometry
[15] = Ratio of resveratrol IC50 to compound IC50 for AAPH radical scavenging activity
[16] = Toxicity in Tetrahymena thermophila assessed as reduction in cell viability after 48 hrs by MTT assay; assay type: organism-based; settings: Tetrahymena thermophila cells, read-out: LD50
[17] = Antioxidant activity assessed as DPPH free radical scavenging activity after 30 mins by spectrophotometry; assay type: physicochemical
[18] = target: Amyloid-beta precursor protein (Homo sapiens) (UniProt P05067); experiment: Induction of self-induced amyloid beta (1 to 40) (unknown origin) fibril aggregation at 100 uM after 3 days by turbidity assay
[19] = target: Amyloid-beta precursor protein (Homo sapiens) (UniProt P05067); experiment: Inhibition of preformed self-induced amyloid beta (1 to 40) (unknown origin) fibril aggregation assessed as remaining fibril aggregates at 100 uM after 4 days at pH 6.60 by thioflavin-T fluorescence assay
[20] = Inhibition of Cu2+-induced amyloid beta (1 to 40) fibril aggregation assessed as remaining fibril aggregates at 100 uM preincubated for 5 mins followed by amyloid beta (1 to 40) addition measured after 7 days at pH 6.60 by thioflavin-T fluorescence assay
[21] = Inhibition of Cu2+-induced amyloid beta (1 to 40) fibril aggregation at 100 uM preincubated for 5 mins followed by amyloid beta (1 to 40) addition measured after 18 days by turbidity assay
[22] = target: Amyloid-beta precursor protein (Homo sapiens) (UniProt P05067); experiment: Inhibition of self-induced amyloid beta (1 to 40) (unknown origin) fibril aggregation at 100 uM after 7 to 18 days by turbidity assay
[23] = target: Amyloid-beta precursor protein (Homo sapiens) (UniProt P05067); experiment: Inhibition of preformed self-induced amyloid beta (1 to 40) (unknown origin) fibril aggregation assessed as remaining fibril aggregates at 100 uM after 12 days at pH 6.60 by thioflavin-T fluorescence assay
[24] = Binding affinity to Fe2+ using FeCl2 at 20 uM after 5 mins by spectrophotometry
[25] = Binding affinity to Cu2+ using CuCl2 at 10 uM after 5 mins by spectrophotometric titration assay
[26] = target: Amyloid-beta precursor protein (Homo sapiens) (UniProt P05067); experiment: Binding affinity to amyloid beta (1 to 40) (unknown origin) by tyrosine fluorimetric titration assay
[27] = Inhibition of Cu2+-induced amyloid beta (1 to 40) aggregation at 100 uM preincubated for 5 mins followed by amyloid beta (1 to 40) addition measured after 18 days at pH 6.60 by thioflavin-T fluorescence assay
[28] = target: Amyloid-beta precursor protein (Homo sapiens) (UniProt P05067); experiment: Inhibition of self-induced amyloid beta (1 to 40) (unknown origin) fibril aggregation assessed as remaining fibril aggregates at 100 uM after 7 days at pH 6.60 by thioflavin-T fluorescence assay
[29] = Inhibition of Cu2+-induced amyloid beta (1 to 40) fibril aggregation assessed as remaining fibril aggregates at 100 uM preincubated for 5 mins followed by amyloid beta (1 to 40) addition measured after 3 days at pH 6.60 by thioflavin-T fluorescence assay
[30] = Ratio of resveratrol IC50 to compound IC50 for DPPH free radical scavenging activity
[31] = Inhibition of preformed Cu2+-induced amyloid beta (1 to 40) fibril aggregation assessed as remaining fibril aggregates at 100 uM after 4 days at pH 6.60 by thioflavin-T fluorescence assay
[32] = Binding affinity to Cu2+ assessed as compound-metal adduct formation
[33] = Induction of preformed Cu2+-induced amyloid beta (1 to 40) fibril aggregation at 100 uM after 4 to 12 days by turbidity assay relative to control

Sequence of Amyloid-beta precursor protein (Homo sapiens) (P05067 whole entry): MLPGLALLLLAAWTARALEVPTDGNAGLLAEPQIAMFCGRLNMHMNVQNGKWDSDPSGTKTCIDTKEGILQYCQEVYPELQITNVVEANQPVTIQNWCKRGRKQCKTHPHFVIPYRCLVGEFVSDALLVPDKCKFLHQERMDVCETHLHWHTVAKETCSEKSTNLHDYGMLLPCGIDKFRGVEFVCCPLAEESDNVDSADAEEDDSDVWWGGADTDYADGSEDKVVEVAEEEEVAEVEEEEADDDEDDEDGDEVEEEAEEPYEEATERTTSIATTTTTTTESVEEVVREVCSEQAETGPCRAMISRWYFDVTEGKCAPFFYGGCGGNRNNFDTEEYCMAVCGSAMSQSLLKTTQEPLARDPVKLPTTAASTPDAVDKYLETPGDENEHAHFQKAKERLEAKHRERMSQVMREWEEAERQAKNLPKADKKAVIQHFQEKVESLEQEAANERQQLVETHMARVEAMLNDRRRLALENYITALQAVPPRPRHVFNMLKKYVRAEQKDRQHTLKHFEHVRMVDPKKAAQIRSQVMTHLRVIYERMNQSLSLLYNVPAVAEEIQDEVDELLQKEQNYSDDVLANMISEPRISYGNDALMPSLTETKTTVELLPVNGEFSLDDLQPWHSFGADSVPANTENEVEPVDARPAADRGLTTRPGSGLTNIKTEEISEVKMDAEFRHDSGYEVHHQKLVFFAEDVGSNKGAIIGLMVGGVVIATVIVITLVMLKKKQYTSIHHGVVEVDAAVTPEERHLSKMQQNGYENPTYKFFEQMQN

With `Oc1ccccc1/N=C/c1c(O)ccc2ccccc12` the IC50 [1] was 11.5 µM, the inhibition [2] was under 57% and the Activity [3] was “inactive”. The Activity [4] was 42.8%, the inhibition [5] was under 22% and the inhibition [6] was 25%. For the same molecule, the inhibition [7] was 100%, the Activity [8] was “Active” and the Activity [9] was “inactive”. The Activity [10] was 0 a.u, the Activity [11] was “inactive” and the logKa [12] was 14. For the same molecule, the Activity [13] was 22.6%, the Activity [14] was “inactive” and the Ratio IC50 [15] was 0.1. For the same molecule, the LC50 at 48 h [16] was 158 µM, the IC50 [17] was 38.5 µM and the Activity [18] was “Active”. For the same molecule, the Activity [19] was 36.2%, the Activity [20] was 33.7% and the inhibition [21] was “Active”. For the same molecule, the inhibition [22] was “Active”, the Activity [23] was 26.6% and the Activity [24] was “inactive”. For the same molecule, the Activity [25] was “Active”, the Ka [26] was 1.91 ×10⁵ /M and the inhibition [27] was “Active”. The Activity [28] was 13.9%, the Activity [29] was 41.5% and the Ratio IC50 [30] was 0.5. For the same molecule, the Activity [31] was 66.4%.
In the case of `Oc1c(I)cc(Cl)c2cccnc12` [CLIOQUINOL], the IC50 [1] is reported as 9.72 µM, the Activity [3] is reported as “Active” and the inhibition [7] is reported as 87.7%. The Activity [9] was “Active”, the Activity [10] was 1.2 a.u and the Activity [11] was “Active”. For the same molecule, the logKa [12] was 15.6, the Activity [13] was 120% and the Activity [14] was “Active”. It also gave a Ratio IC50 [15] of 0.2, an LC50 at 48 h [16] of 240 µM and an IC50 [17] of 40.6 µM. For the same molecule, the logKa [32] was 10, the Activity [19] was 170% and the Activity [20] was 196%. For the same molecule, the Activity [23] was 310%, the Activity [24] was “Active” and the Activity [33] was “Active”. It also gave a Ka [26] of 3.69 ×10⁵ /M, an Activity [28] of 112% and an Activity [29] of 250%. For the same molecule, the Ratio IC50 [30] was 0.4.
